Patent US4323559A, “Compounds derived from N-acetyl-nor-muramyl-L-alanyl-D-isoglutamic acid and other compounds and biologically active compositions containing such compounds” (Agencie Nationale de Valorisation de la Recherche (ANVAR), priority 1973, dated 1982)

Columns and labels:
Klebsiella pneumoniae = assay: Anti-infectious protection of mice against Klebsiella pneumoniae infection; assay type: in vivo; conditions: compound iv. 100 μg at -24 h; for % protection: difference of % survivors vs controls; for % survival D + 3 / % survival D + 5 / % survival D + 10: mice
[1] = system: bovine serum albumin (BSA); assay: Adjuvant activity in aqueous phase: anti-albumin antibody titer by passive hemagglutination; assay type: in vivo, Swiss mice; conditions: S.C., 100 μg with BSA 0.5 mg/animal in isotonic saline; for Titer of antibody 28th day: Swiss mice; for Titer of antibody 34th day / Titer of antibody 36th day: booster 0.1 mg BSA at day 30
Description: In the series of tests of which the results are indicated hereafter, the influence of the active principle according to the invention was assessed as bearing on the anti-albumin antibody rate, particularly under the following conditions. Groups of 8 two-month-old Swiss mice received by subcutaneous injection (SC) or orally (PO) 0.5 mg of antigen constituted by the bovine serum albumin (BSA) with or without the substance tested in an isotonic saline solution. This large dose of antigen, because of its closeness to the limit paralysing dose with respect to the immunising response, elicits but a weak or no immune response in the controls; it therefore constitutes a severe criterion for showing the activity of an adjuvant substance. […] The proportion of antibody was determined by passive hemagglutination by using sheep red blood cells treated with formalin and coated with the antigen studied according to the method described by […] and […]. Immunol., 100, 641-648, 1968). Blood samples were taken 14, 28, 34 and 36 days after the first injection.

Row | SMILES | % protection (Klebsiella pneumoniae; K. pneumoniae im. 2 × 10^4) [%] | % survival D + 3 (Klebsiella pneumoniae; K. pneumoniae im. 2 × 10^4) [%] | % survival D + 5 (Klebsiella pneumoniae; K. pneumoniae im. 2 × 10^4) [%] | % survival D + 10 (Klebsiella pneumoniae; K. pneumoniae im. 2 × 10^4) [%] | Titer of antibody 28th day [1] | Titer of antibody 34th day [1] | Titer of antibody 36th day [1] | % protection (Klebsiella pneumoniae; K. pneumoniae im. 1,5 × 10^4) [%] | % survival D + 3 (Klebsiella pneumoniae; K. pneumoniae im. 1,5 × 10^4) [%] | % survival D + 5 (Klebsiella pneumoniae; K. pneumoniae im. 1,5 × 10^4) [%] | % survival D + 10 (Klebsiella pneumoniae; K. pneumoniae im. 1,5 × 10^4) [%]
1 | CC(=O)N[C@H]1C(O)O[C@H](COC(C)=O)[C@@H](OC(C)=O)[C@@H]1O[C@H](C)C(=O)N[C@@H](C)C(=O)N[C@H](CCC(=O)O)C(N)=O (stereo partly drawn) [4,6-di-O-acetyl-Mur-NAc-L-Ala-D-Glu (OH)-NH2] | 47 | 97 | 84 | 63 | – | – | – | – | – | – | –
2 | CC(=O)N[C@H]1C(O)O[C@H](COC(=O)CCC(=O)O)[C@@H](O)[C@@H]1O[C@H](C)C(=O)N[C@@H](C)C(=O)N[C@H](CCC(=O)O)C(N)=O (stereo partly drawn) [6-O-succinyl-Mur-NAc-L-Ala-D-Glu, (OH)-NH2] | 44 | 100 | 91 | 63 | – | – | – | – | – | – | –
3 | CC(=O)N[C@@H]1[C@@H](O[C@H](C)C(=O)N[C@@H](C)C(=O)N[C@H](CCC(=O)O)C(N)=O)[C@H](O)[C@@H](CO)O[C@H]1O [Mur-NAc-L-Ala-D-Glu(OH)--NH2, Mur-NAc-L-Ala-D-Glu(OH)-NH2, reference compound] | – | – | – | – | 25 | 50 | 400 | 47 | 83 | 66 | 60
4 | CC(=O)N[C@H]1C(O)O[C@H](CO)[C@@H](O)[C@@H]1OCC(=O)N[C@@H](C)C(=O)N[C@H](CCC(=O)O)C(N)=O (stereo partly drawn) [norMur-NAc-L-Ala-D-Glu(OH)-NH2, 2-(2-acetamido-2-deoxy-3-O-D-glucopyranosyl)-acetyl-L-alanyl-D-isoglutamine] | – | – | – | – | 25 | 50 | 350 | 47 | 78 | 64 | 60
